The compounds below were run against T1, GPR84 (Homo sapiens, UniProt Q9NQS5) (assay: GPR84 [35S]GTPγS binding assay, HEPES buffer). Details: 3,3′ di indolylmethane at EC80, membranes from stable cell line over expressing GPR84.
T1 construct: expressed in transfected cells
T1 sequence (Q9NQS5 whole entry): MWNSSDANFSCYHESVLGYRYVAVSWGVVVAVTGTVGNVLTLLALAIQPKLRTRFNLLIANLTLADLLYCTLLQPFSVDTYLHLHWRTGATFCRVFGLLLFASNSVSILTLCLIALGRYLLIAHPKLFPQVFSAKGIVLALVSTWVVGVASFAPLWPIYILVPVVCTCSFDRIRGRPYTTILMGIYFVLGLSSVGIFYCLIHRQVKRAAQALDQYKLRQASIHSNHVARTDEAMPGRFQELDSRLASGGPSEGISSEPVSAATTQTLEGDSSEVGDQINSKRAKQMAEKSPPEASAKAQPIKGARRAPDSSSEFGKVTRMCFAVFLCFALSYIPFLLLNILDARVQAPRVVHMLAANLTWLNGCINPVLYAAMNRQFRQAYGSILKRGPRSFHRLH
Format: biochemical
Method: 1.1. Cell Based Assay: GTp-γ S Binding Assay.
The following assay can be used for determination of GPR84 activation.
The assay is performed in a 96 well plate where the following reagents are added. […] In a last step, 30 μL of a mixture consisting of membranes-GTPγS-SpA beads is added [mixture consists of 20 μg/well membranes derived from stable cell line over expressing GPR84 (membranes are pre-incubated with 0.1 μM GDP for 15 min at 4° C.), 0.1 nM [^35S]GTPγS (Perkin Elmer, NEG030) and 0.5 mg/well PVT-WGA SpA beads (Perkin Elmer, RPNQ0001)]. All components are diluted in assay buffer containing 20 mM HEPES pH 7.4; 5 mM MgCl2; 250 mM NaCl; 0.05% BSA; 75 ug/mL saponin Reactions are incubated for 90 min at room temperature followed by centrifugation at 2000 rpm during 15 min. Plates are read on a Topcount reader (Perkin Elmer) immediately after centrifugation (readout time, 1 min/well).
Compound `O=c1nc(OCC2CCCO2)cc2n1CCc1cc(OCCOCc3ccccc3)ccc1-2` (stereo not drawn) [compound 51, 9-(2-benzyloxy-ethoxy)-2-(tetrahydro-furan-2-ylmethoxy)-6,7-dihydro-pyrimido[6,1-a]isoquinolin-4-one] has an IC50 of 0.01 to 100 nM. For `O=c1nc(OCC2CCCO2)cc2n1CCc1cc(OCC3CCCO3)ccc1-2` (stereo not drawn) [compound 52, 2,9-bis-(tetrahydro-furan-2-ylmethoxy)-6,7-dihydro-pyrimido[6,1-a]isoquinolin-4-one], the IC50 was 500 to 1000 nM. Work on `O=c1nc(OCC2COc3ccccc3O2)cc2n1CCc1cc(OCC3CCCO3)ccc1-2` (stereo not drawn) [compound 54, 2-(2,3-dihydro-benzo[1,4]dioxin-2-ylmethoxy)-9-(tetrahydro-furan-2-ylmethoxy)-6,7-dihydro-pyrimido[6,1-a]isoquinolin-4-one] yielded an IC50 of 0.01 to 100 nM. `Cn1cc(-c2cccc(COc3ccc4c(c3)CCn3c-4cc(OCC4CCCO4)nc3=O)n2)cn1` (stereo not drawn) [compound 55, 9-[6-(1-methyl-1H-pyrazol-4-yl)-pyridin-2-ylmethoxy]-2-(tetrahydro-furan-2-ylmethoxy)-6,7-dihydro-pyrimido[6,1-a]isoquinolin-4-one] showed an IC50 of 100 to 500 nM. Work on `O=c1nc(OCC2CCCO2)cc2n1CCc1cc(OCc3cccc(-c4ccoc4)n3)ccc1-2` (stereo not drawn) [compound 56, 9-(6-furan-3-yl-pyridin-2-ylmethoxy)-2-(tetrahydro-furan-2-ylmethoxy)-6,7-dihydro-pyrimido[6,1-a]isoquinolin-4-one] yielded an IC50 of 0.01 to 100 nM. In the case of `O=c1nc(OCC2CCCO2)cc2n1CCc1cc(OCc3nnnn3C3CC3)ccc1-2` (stereo not drawn) [compound 58, 9-(1-cyclopropyl-1H-tetrazol-5-ylmethoxy)-2-(tetrahydro-furan-2-ylmethoxy)-6,7-dihydro-pyrimido[6,1-a]isoquinolin-4-one], the IC50 is reported as 100 to 500 nM. For `O=C(COc1ccc2c(c1)CCn1c-2cc(OCC2CCCO2)nc1=O)Nc1ccccc1` (stereo not drawn) [compound 63, 2-[4-oxo-2-(tetrahydro-furan-2-ylmethoxy)-6,7-dihydro-4H-pyrimido[6,1-a]isoquinolin-9-yloxy]-N-phenyl-acetamide], the IC50 was 0.01 to 100 nM. Work on `CCCn1nnnc1COc1ccc2c(c1)CCn1c-2cc(OCC2CCCO2)nc1=O` (stereo not drawn) [compound 64, 9-(1-propyl-1H-tetrazol-5-ylmethoxy)-2-(tetrahydro-furan-2-ylmethoxy)-6,7-dihydro-pyrimido[6,1-a]isoquinolin-4-one] yielded an IC50 of 100 to 500 nM. `O=c1nc(OCC2CCCO2)cc2n1CCc1cc(OCc3ncco3)ccc1-2` (stereo not drawn) [compound 65, 9-(oxazol-2-ylmethoxy)-2-(tetrahydro-furan-2-ylmethoxy)-6,7-dihydro-pyrimido[6,1-a]isoquinolin-4-one] gave an IC50 of 500 to 1000 nM. In the case of `CCN(CC)C(=O)COc1ccc2c(c1)CCn1c-2cc(OCC2COc3ccccc3O2)nc1=O` (stereo not drawn) [compound 66, 2-[2-(2,3-dihydro-benzo[1,4]dioxin-2-ylmethoxy)-4-oxo-6,7-dihydro-4H-pyrimido[6,1-a]isoquinolin-9-yloxy]-N,N-diethyl-acetamide], the IC50 is reported as 100 to 500 nM. `CC(C)N(C)C(=O)COc1ccc2c(c1)CCn1c-2cc(OCC2COc3ccccc3O2)nc1=O` (stereo not drawn) [compound 67, 2-[2-(2,3-Dihydro-benzo[1,4]dioxin-2-ylmethoxy)-4-oxo-6,7-dihydro-4H-pyrimido[6,1-a]isoquinolin-9-yloxy]-N-isopropyl-N-methyl-acetamide] was tested, and the IC50 was 0.01 to 100 nM. With `O=C(COc1ccc2c(c1)CCn1c-2cc(OCC2COc3ccccc3O2)nc1=O)Nc1ccccc1` (stereo not drawn) [compound 68, 2-[2-(2,3-dihydro-benzo[1,4]dioxin-2-ylmethoxy)-4-oxo-6,7-dihydro-4H-pyrimido[6,1-a]isoquinolin-9-yloxy]-N-phenyl-acetamide] the IC50 was 0.01 to 100 nM. `CCCn1nnnc1COc1ccc2c(c1)CCn1c-2cc(OCC2COc3ccccc3O2)nc1=O` (stereo not drawn) [compound 69, 2-(2,3-dihydro-benzo[1,4]dioxin-2-ylmethoxy)-9-(1-propyl-1H-tetrazol-5-ylmethoxy)-6,7-dihydro-pyrimido[6,1-a]isoquinolin-4-one] showed an IC50 of 0.01 to 100 nM. `CCCCn1nnnc1COc1ccc2c(c1)CCn1c-2cc(OCC2COc3ccccc3O2)nc1=O` (stereo not drawn) [compound 70, 9-(1-butyl-1H-tetrazol-5-ylmethoxy)-2-(2,3-dihydro-benzo[1,4]dioxin-2-ylmethoxy)-6,7-dihydro-pyrimido[6,1-a]isoquinolin-4-one] gave an IC50 of 0.01 to 100 nM. `O=c1nc(OCC2COc3ccccc3O2)cc2n1CCc1cc(OCCN3CCOCC3)ccc1-2` (stereo not drawn) [compound 71, 2-(2,3-dihydro-benzo[1,4]dioxin-2-ylmethoxy)-9-(2-morpholin-4-yl-ethoxy)-6,7-dihydro-pyrimido[6,1-a]isoquinolin-4-one] showed an IC50 of 0.01 to 100 nM. For `N#CCOc1ccc2c(c1)CCn1c-2cc(OCC2COc3ccccc3O2)nc1=O` (stereo not drawn) [compound 72, [2-(2,3-dihydro-benzo[1,4]dioxin-2-ylmethoxy)-4-oxo-6,7-dihydro-4H-pyrimido[6,1-a]isoquinolin-9-yloxy]-acetonitrile], the IC50 was 0.01 to 100 nM. With `O=c1nc(OCC2COc3ccccc3O2)cc2n1CCc1cc(OCc3ncco3)ccc1-2` (stereo not drawn) [compound 73, 2-(2,3-dihydro-benzo[1,4]dioxin-2-ylmethoxy)-9-(oxazol-2-ylmethoxy)-6,7-dihydro-pyrimido[6,1-a]isoquinolin-4-one] the IC50 was 100 to 500 nM. In the case of `O=c1nc(OCC2COc3ccccc3O2)cc2n1CCc1cc(OCc3nnnn3C3CC3)ccc1-2` (stereo not drawn) [compound 75, 9-(1-cyclopropyl-1H-tetrazol-5-ylmethoxy)-2-(2,3-dihydro-benzo[1,4]dioxin-2-ylmethoxy)-6,7-dihydro-pyrimido[6,1-a]isoquinolin-4-one], the IC50 is reported as 0.01 to 100 nM. In the case of `C=CCOc1ccc2c(c1)CCn1c-2cc(OCC2COc3ncccc3O2)nc1=O` (stereo not drawn) [compound 77, 9-allyloxy-2-(2,3-dihydro-[1,4]dioxino[2,3-b]pyridin-2-ylmethoxy)-6,7-dihydro-pyrimido[6,1-a]isoquinolin-4-one], the IC50 is reported as 100 to 500 nM. `O=C(COc1ccc2c(c1)CCn1c-2cc(OCC2COc3ccccc3O2)nc1=O)NCc1ccccc1` (stereo not drawn) [compound 78, N-benzyl-2-[2-(2,3-dihydro-benzo[1,4]dioxin-2-ylmethoxy)-4-oxo-6,7-dihydro-4H-pyrimido[6,1-a]isoquinolin-9-yloxy]-acetamide] gave an IC50 of 0.01 to 100 nM. `O=c1nc(OCC2COc3ccccc3O2)cc2n1CCc1cc(OCCN3CCCC3)ccc1-2` (stereo not drawn) [compound 79, 2-(2,3-dihydro-benzo[1,4]dioxin-2-ylmethoxy)-9-(2-pyrrolidin-1-yl-ethoxy)-6,7-dihydro-pyrimido[6,1-a]isoquinolin-4-one] showed an IC50 of 100 to 500 nM. Work on `O=c1nc(OCC2COc3ccccc3O2)cc2n1CCc1cc(OCCN3CCCCC3)ccc1-2` (stereo not drawn) [compound 80, 2-(2,3-dihydro-benzo[1,4]dioxin-2-ylmethoxy)-9-(2-piperidin-1-yl-ethoxy)-6,7-dihydro-pyrimido[6,1-a]isoquinolin-4-one] yielded an IC50 of 100 to 500 nM. `O=c1nc(OCC2COc3ccccc3O2)cc2n1CCc1cc(OCCCN3CCCCC3)ccc1-2` (stereo not drawn) [compound 81, 2-(2,3-dihydro-benzo[1,4]dioxin-2-ylmethoxy)-9-(3-piperidin-1-yl-propoxy)-6,7-dihydro-pyrimido[6,1-a]isoquinolin-4-one] gave an IC50 of 100 to 500 nM. In the case of `CN(C)CCCOc1ccc2c(c1)CCn1c-2cc(OCC2COc3ccccc3O2)nc1=O` (stereo not drawn) [compound 82, 2-(2,3-Dihydro-benzo[1,4]dioxin-2-ylmethoxy)-9-(3-dimethylamino-propoxy)-6,7-dihydro-pyrimido[6,1-a]isoquinolin-4-one], the IC50 is reported as 500 to 1000 nM. In the case of `CN1CCCC1CCOc1ccc2c(c1)CCn1c-2cc(OCC2COc3ccccc3O2)nc1=O` (stereo not drawn) [compound 83, 2-(2,3-dihydro-benzo[1,4]dioxin-2-ylmethoxy)-9-[2-(1-methyl-pyrrolidin-2-yl)-ethoxy]-6,7-dihydro-pyrimido[6,1-a]isoquinolin-4-one], the IC50 is reported as 100 to 500 nM. `CN1CCN(CCCOc2ccc3c(c2)CCn2c-3cc(OCC3COc4ccccc4O3)nc2=O)CC1` (stereo not drawn) [compound 84, 2-(2,3-dihydro-benzo[1,4]dioxin-2-ylmethoxy)-9-[3-(4-methyl-piperazin-1-yl)-propoxy]-6,7-dihydro-pyrimido[6,1-a]isoquinolin-4-one] gave an IC50 of 100 to 500 nM. `CCOC(=O)c1ccc(COc2ccc3c(c2)CCn2c-3cc(OCC3COc4ccccc4O3)nc2=O)o1` (stereo not drawn) [compound 85, 5-[2-(2,3-dihydro-benzo[1,4]dioxin-2-ylmethoxy)-4-oxo-6,7-dihydro-4H-pyrimido[6,1-a]isoquinolin-9-yloxymethyl]-furan-2-carboxylic acid ethyl ester] gave an IC50 of 0.01 to 100 nM. Compound `CC(C)(C)c1nc(COc2ccc3c(c2)CCn2c-3cc(OCC3CCCO3)nc2=O)no1` (stereo not drawn) [compound 87, 9-(5-tert-butyl-[1,2,4]oxadiazol-3-ylmethoxy)-2-(tetrahydro-furan-2-ylmethoxy)-6,7-dihydro-pyrimido[6,1-a]isoquinolin-4-one] has an IC50 of 0.01 to 100 nM. `O=c1nc(OCC2CCCO2)cc2n1CCc1cc(OCc3noc(-c4ccccc4)n3)ccc1-2` (stereo not drawn) [compound 88, 9-(5-phenyl-[1,2,4]oxadiazol-3-ylmethoxy)-2-(tetrahydro-furan-2-ylmethoxy)-6,7-dihydro-pyrimido[6,1-a]isoquinolin-4-one] showed an IC50 of 0.01 to 100 nM. `O=c1nc(OCC2COc3ncccc3O2)cc2n1CCc1cc(OCCN3CCOCC3)ccc1-2` (stereo not drawn) [compound 90, 2-(2,3-dihydro-[1,4]dioxino[2,3-b]pyridin-2-ylmethoxy)-9-(2-morpholin-4-yl-ethoxy)-6,7-dihydro-pyrimido[6,1-a]isoquinolin-4-one] was tested, and the IC50 was 100 to 500 nM.
